Measurements published in patent EP0911330B1, “1-(4-Arylpiperazine-1-y1)-3-(2-oxopyrrolidin/piperidin-1-y1) propanes as therapeutic agents for hypertension, ischemia, cardiovascular and other adrenergic receptors related disorders” (Council of Scientific & Industrial Research, priority 1997, dated 1999).

Tests used:
[1] = test system: Langendorff perfused rat heart; experiment: Antiischemic activity, Langendorff perfused rat heart, brief (16 min.) ischemic insult, compound given at reperfusion (Table 3); conditions: 0.001 ug/ml at reperfusion
Description: Table 3: Compound administered at the time of reperfusion at a dose of 0.001 ug/ml on brief period (16 min.) of ischemic insult.
(§1) The rats were killed by decapitation, heart were rapidly excised and placed in ice-cold HEPES tyrode buffer. Then isolated hearts were perfused retrogradely through coronary arteries using the Langendorff technique. The perfusion buffer consisted (in mM) NaCl 137, KCl 5.4, CaCl2 1.8, MgCl2 1.0, glucose 11.2 and HEPES 3.0. The buffer (pH 7.4) was continuously gassed with oxygen and maintained at 37°C. Coronary flow rate was maintained at 10 ml/min. The heart contracted spontaneously.
(§2) The perfused heart was allowed to equilibrate for 30 min. before initiation of any insult protocol. The text compounds were given at the time of reperfusion. Some of the compounds were dissolved in ethanol. Final concentration of ethanol in the perfusion buffer was 0.0001% and had no effect of its own on the parameter used. • (a) For brief period of ischemic insult (Hideo et al.). Pathophysiology and pathogenesis of stunned myocardium. J. Clin. Invest., 79, 950-961, 1987). Ischemia was initiated by stopping the flow for 16 min. followed by 30 min. reperfusion period. The durations were decided on the initial pilot experiments leading to 50% recovery of function. • (b) For prolong period of ischemic insult (Becker, L.C. & Ambrosio, G. Myocardial consequences of reperfusion. Prog. Cardiovas. Dis., 30, 23-44, 1987). Ischemia was initiated by stopping the flow for […]. followed by 30 min. reperfusion.

cat [2] = experiment: Effect on blood pressure and adrenaline vasopressor response in anaesthetized cat, i.v. (Table 2); format: in vivo; conditions: for inhibition at 2 µmol/kg / inhibition in vivo at 2 µmol/kg / inhibition at 10 µmol/kg / inhibition in vivo at 10 µmol/kg: Felis catus, iv; for inhibition at 2 µmol/kg / inhibition at 10 µmol/kg: read-out: Adrenaline vasopressure response % inhibition; for inhibition in vivo at 2 µmol/kg / inhibition in vivo at 10 µmol/kg: read-out: B.P. fall %
Description: • (a) Cats (2.6-4.0 kg) of either sex anaesthetized with pentobarbitone sodium (40 mg/kg i.v.) and showing basal mean arterial blood pressure below 150 mm (Hg) were categorised as normotensive and above 150 mm Hg as hypertensive. Arterial blood pressure (BP) was recorded from one of the carotid artery through a stathum P23 DC pressure transducer and 7P1 low level DC preamplifier on a Grass Model P7 Polygraph, Signals from 7P1 preamplifier were used to trigger 7P4 Tachograph preamplifier for recording the heart rate (HR). Right femoral vein and Trachea were cannulated for intravenous injections and artificial ventilation respectively. Control responses to intravenous injection of noradrenaline (2-4 ug); acetyl choline (1-2 ug); histamine ([…]) and isoprenaline (1-2 ug) were taken before and after the administration of test doses of each compounds.

cat [3] = experiment: Comparative antihypertensive effect with clinically used antihypertensive drugs in cat; format: in vivo; conditions: 2 uMol/kg i.v.
[4] = test system: Langendorff perfused rat heart preparation; experiment: Cardioprotective activity, Langendorff perfused rat heart, prolonged ischemic insult, compound given at reperfusion; conditions: 10^-6M, ischemic insult 45 min.
Description: Further, in Langendorff perfused rat heart preparation subjected to even upto 90 min. global ischemia, the compound at 0.001 ug/ml conc. given at the time of reperfusion revived normal rhythmic contraction started within 2 min. (Table 1) and incidence of reperfusion induced arrhythmia were abolished. Table 1: Compound administered at the time of reperfusion at the dose of 0.001 ug/ml on prolong period (90 min.) of ischemic insult.
as §1, §2

| Compound | Onset [1] | Percentage recovery 15 min. [1] | Percentage recovery 30 min. [1] | inhibition at 2 µmol/kg (cat [2]; dose 2.0 umol/kg i.v.) | inhibition in vivo at 2 µmol/kg (cat [2]; dose 2.0 umol/kg i.v.) | inhibition at 10 µmol/kg (cat [2]; dose 10.0 umol/kg i.v.) | inhibition in vivo at 10 µmol/kg (cat [2]; dose 10.0 umol/kg i.v.) | Dur. (cat [2]; dose 2.0 umol/kg i.v.) | Dur. (cat [2]; dose 10.0 umol/kg i.v.) | B.P. fall (cat [3]) | Dur. (cat [3]) | Onset [4] |
| --- | --- | --- | --- | --- | --- | --- | --- | --- | --- | --- | --- | --- |
| O=C1CCCCN1CCCN1CCN(c2ccccn2)CC1 [2-Pyridyl, n=2, 1-[4-(2-pyridyl)piperazin-1-yl]-3-[2-oxopiperidin-1-yl] propane] | 2.0 min | 47.60 Percentage | 71.40 Percentage | 28% | 34% | -20 to 0% | 42% | 53 min | >71 min |  |  |  |
| CCc1ccccc1N1CCN(CCCN2CCCC2=O)CC1 [C6H4-2-C2H5, n=1, 1-[4-(2-ethylphenyl)piperazin-1-yl]-3-[2-oxopyrrolidin-1-yl] propane] | 3.0 min |  |  | -20 to 0% | 13% |  | 62% | 10 min | 10 min |  |  |  |
| O=C1CCCCN1CCCN1CCN(c2cccc(C(F)(F)F)c2)CC1 [C6H4-3-CF3, n=2, 1-[4-(3-trifluoromethylphenyl)piperazin-1-yl]-3-[2-oxopiperidin-1-yl]propane] |  |  |  | -20 to 0% |  | 25% | 10% |  | Tr |  |  |  |
| O=C1CCCN1CCCN1CCN(c2cccc(Cl)c2)CC1 [C6H4-3-Cl, n=1, 1-[4-(3-chlorophenyl)piperazin-1-yl]-3-[2-oxopyrrolidin-1-yl]propane] | 1.0 min |  |  | -20 to 0% | 25% |  |  | 20 min | >57 min |  |  |  |
| O=C1CCCCN1CCCN1CCN(c2cccc(Cl)c2)CC1 [C6H4-3-Cl, n=2, 1-[4-(3-chlorophenyl)piperazin-1-yl]-3-[2-oxopiperidin-1-yl] propane] | 3.0 min | 31.50 Percentage | 39.40 Percentage | 33% | 27% | 10% | 44% | 9 min | 62 min |  |  |  |
| O=C1CCCN1CCCN1CCN(c2cccc(F)c2)CC1 [C6H4-3-F, n=1, 1-[4-(3-fluorophenyl)piperazin-1-yl]-3-[2-oxopyrrolidin-1-yl]propane] | 2.0 min |  |  | 80% | 18% | > 100% | 32% | 3 min | 30 min |  |  |  |
| CCc1ccc(N2CCN(CCCN3CCCC3=O)CC2)cc1 [C6H4-4-C2H5, n=1, 1-[4-(4-ethylphenyl)piperazin-1-yl]-3-[2-oxopyrrolidin-1-yl]propane] | 2.0 min |  |  |  | 9% |  | 20% | Tr | 14 min |  |  |  |
| O=C1CCCN1CCCN1CCN(c2ccc(Cl)cc2)CC1 [C6H4-4-Cl, n=1, 1-[4-(4-chlorophenyl)piperazin-1-yl]-3-[2-oxopyrrolidin-1-yl]propane] | 1.0 min |  |  |  |  |  |  |  |  |  |  |  |
| O=C1CCCCN1CCCN1CCN(c2ccc(Cl)cc2)CC1 [C6H4-4-Cl, n=2, 1-[4-(4-chlorophenyl)piperazin-1-yl]-3-[2-oxopiperidin-1-yl] propane] |  |  |  | 20% | 24% | 25% | 46% | 20 min | 25 min |  |  |  |
| O=C1CCCCN1CCCN1CCN(c2ccc(F)cc2)CC1 [C6H4-4-F, n=2, 1-[4-(4-fluorophenyl)piperazin-1-yl]-3-[2-oxopiperidin-1-yl] propane] |  |  |  | 46% | 23% | > 100% | 33% | 40 min | >84 min |  |  |  |
| C[C@H](CS)C(=O)N1CCC[C@H]1C(=O)O [Captopril, reference compound] |  |  |  |  |  |  |  |  |  | 14% | 28 min |  |
| COC(=O)C1=C(C)NC(C)=C(C(=O)OC)C1c1ccccc1[N+](=O)[O-] [Nifedipine, reference compound] |  |  |  |  |  |  |  |  |  |  |  | 2.5 min |
